Assays:
Assay type in all cases: biochemical
Wild-type cruzipain = Wild-type cruzipain (Trypanosoma cruzi, UniProt P25779); experiment: Trypanosoma cruzi cruzipain peptidase activity assay (Ki); conditions: read-out: Ki, inhibitors of cruzain and cruzipains
Method in brief: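 Native cruzipain from T. cruzi Dm28 epimastigotes, 2.5 nM, in 100 mM sodium phosphate pH 6.75 with 1 mM EDTA and 10 mM L-cysteine, 25 °C, DMSO <1%. Rates taken from continuous fluorogenic substrate read; Ki by regression assuming reversible pure-competitive inhibition.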

Bovine cathepsin S = target: T1, Bovine cathepsin S (Bos taurus, UniProt P25326); experiment: Cathepsin S peptidase activity assay, bovine enzyme (Ki); conditions: species of cathepsin S not given; read-out: Ki, inhibitors of cathepsin S
T1 construct: purchased CN Biosciences
T1 sequence (P25326 115-331): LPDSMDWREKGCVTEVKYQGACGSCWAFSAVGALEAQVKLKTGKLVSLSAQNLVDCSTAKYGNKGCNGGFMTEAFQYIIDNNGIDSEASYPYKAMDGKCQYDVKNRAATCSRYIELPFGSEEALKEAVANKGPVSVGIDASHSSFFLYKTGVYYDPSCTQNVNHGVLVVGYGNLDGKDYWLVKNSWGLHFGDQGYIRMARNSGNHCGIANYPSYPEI
Method in brief: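 Bovine cathepsin S activity followed by fluorescence increase from substrate conversion to product over time, enzyme added to start the reaction, at 25±1° C. Buffer 10 mM bis-tris-propane pH 6.5 with 1 mM EDTA, 5 mM 2-mercaptoethanol, 1 mM CaCl2; DMSO kept below 1% (vol./vol.).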

CPB2.8ΔCTE = target: T2, CPB2.8ΔCTE (Leishmania mexicana, UniProt P36400); experiment: Leishmania mexicana cysteine protease B (CPB) peptidase activity assay (Ki); conditions: Ki, inhibitors of Leismania mexicana CPB protease
T2 construct: Wild-type recombinant CPB without the C-terminal extention (i.e. CPB2.8ΔCTE); Dr. Jeremy Mottram (Wellcome Centre for Molecular Parasitology, University of Glasgow)
T2 sequence (P36400 126-343, stated change not applied): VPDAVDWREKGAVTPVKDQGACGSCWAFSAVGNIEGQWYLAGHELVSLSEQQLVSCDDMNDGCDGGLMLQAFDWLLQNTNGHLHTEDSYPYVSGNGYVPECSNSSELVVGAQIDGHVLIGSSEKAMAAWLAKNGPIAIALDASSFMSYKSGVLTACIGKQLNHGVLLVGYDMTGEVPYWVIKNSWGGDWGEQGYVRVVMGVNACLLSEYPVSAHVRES
Method in brief: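 Recombinant CPB2.8ΔCTE (0.25 nM) was assayed in 100 mM sodium acetate pH 5.5 with 1 mM EDTA, 200 mM NaCl and 10 mM DTT at 25 °C, DMSO <1%, enzyme added to start. Rates were taken from continuous fluorescence slopes; apparent Ki was fitted assuming reversible, pure-competitive inhibition.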

human cathepsin B = target: T3, human cathepsin B (Homo sapiens, UniProt P07858); experiment: Cathepsin B peptidase activity assay (Ki); conditions: read-out: Ki, inhibitors of cathepsin B
T3 construct: purchased CN Biosciences
Method in brief: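 Buffer: 10 mM bis-tris-propane pH 6.5, 1 mM EDTA, 5 mM 2-mercaptoethanol, 1 mM CaCl2; DMSO <1%. Ki assumed reversible, pure-competitive, from Ki^app=Ki(1+[So]/KM^app) by non-linear regression.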

Sequence of Wild-type cruzipain (P25779 whole entry): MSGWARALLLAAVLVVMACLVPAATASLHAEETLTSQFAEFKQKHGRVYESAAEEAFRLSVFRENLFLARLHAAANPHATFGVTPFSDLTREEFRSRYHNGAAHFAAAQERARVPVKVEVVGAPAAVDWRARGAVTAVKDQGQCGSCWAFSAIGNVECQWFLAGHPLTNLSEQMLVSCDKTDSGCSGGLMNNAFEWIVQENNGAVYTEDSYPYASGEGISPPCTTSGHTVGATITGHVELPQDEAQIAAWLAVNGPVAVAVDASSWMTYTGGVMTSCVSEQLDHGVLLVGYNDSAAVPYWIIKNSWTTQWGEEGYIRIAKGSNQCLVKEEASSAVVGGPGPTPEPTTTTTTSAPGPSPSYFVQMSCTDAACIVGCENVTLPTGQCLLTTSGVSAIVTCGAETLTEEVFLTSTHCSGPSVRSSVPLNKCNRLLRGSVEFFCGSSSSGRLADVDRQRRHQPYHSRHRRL

SMILES | Ki (Wild-type cruzipain) | Ki (Bovine cathepsin S) | Ki (CPB2.8ΔCTE) | Ki (human cathepsin B)
O=C(N[C@@H](Cc1ccc(O)cc1)C(=O)N1CC[C@@H]2[C@H]1C(=O)CN2C(=O)c1ccccc1)C(c1ccccc1)c1ccccc1 [Example 330, (3aR,6aS)-N-[(1S)-2-(4-Benzoyl-6-oxo-hexahydro-pyrrolo[3,2-b]pyrrol-1-yl)-1-(4-hydroxy-benzyl)-2-oxo-ethyl]-2,2-diphenyl-acetamide] | < 5 µM | < 5 µM | < 5 µM | < 5 µM
O=C(N[C@@H](Cc1ccc(O)cc1)C(=O)N1CC[C@@H]2[C@H]1C(=O)CN2C(=O)c1ccccc1)c1cccc(Br)c1 [Example 298, (3aR,6aS)-N-[(1S)-2-(4-Benzoyl-6-oxo-hexahydro-pyrrolo[3,2-b]pyrrol-1-yl)-1-(4-hydroxy-benzyl)-2-oxo-ethyl]-3-bromo-benzamide] | < 5 µM | < 5 µM |  | < 5 µM
CC(C)C[C@H](NC(=O)c1ccc(Oc2ccccc2)cc1)C(=O)N1CC[C@@H]2[C@H]1C(=O)CN2C(=O)c1ccccc1 [Example 39, (3aR,6aS)-N-[(1S)-1-(4-Benzoyl-6-oxo-hexahydro-pyrrolo[3,2-b]pyrrole-1-carbonyl)-3-methyl-butyl]-4-phenoxy-benzamide] | < 5 µM | < 5 µM | < 5 µM | < 5 µM
Cc1cccc(C[C@H](NC(=O)C(c2ccccc2)c2ccccc2)C(=O)N2CC[C@@H]3[C@H]2C(=O)CN3C(=O)c2csc3ccccc23)c1 [Example 314] | < 5 µM | < 5 µM | < 5 µM | < 5 µM
O=C(N[C@@H](Cc1cccc(F)c1)C(=O)N1CC[C@@H]2[C@H]1C(=O)CN2C(=O)c1csc2ccccc12)C(c1ccccc1)c1ccccc1 [Example 315, (3aR,6aS)-N-[(1S)-2-[4-(Benzo[b]thiophene-3-carbonyl)-6-oxo-hexahydro-pyrrolo[3,2-b]pyrrole-1-yl]-1-(3-fluoro-benzyl)-2-oxo-ethyl]-2,2-diphenyl-acetamide] | < 5 µM | < 5 µM | < 5 µM | < 5 µM
Nc1ccc(C(=O)N2CC(=O)[C@@H]3[C@H]2CCN3C(=O)[C@H](Cc2ccc(O)cc2)NC(=O)c2cccc(Br)c2)cc1 [Example 310, (3aR,6aS)-N-[(1S)-2-[4-(4-Amino-benzoyl)-6-oxo-hexahydro-pyrrolo[3,2-b]pyrrole-1-yl]-1-(4-hydroxy-benzyl)-2-oxo-ethyl]-3-bromo-benzamide] |  | < 5 µM |  | < 5 µM
CC(C)C[C@H](NC(=O)c1ccc(N)cc1)C(=O)N1CC[C@@H]2[C@H]1C(=O)CN2C(=O)c1cccc(S(C)(=O)=O)c1 [Example 61, (3aR,6aS)-4-Amino-N-{(1S)-1-[4-(3-methanesulfonyl-benzoyl)-6-oxo-hexahydro-pyrrolo[3,2-b]pyrrole-1-carbonyl]-3-methyl-butyl}-benzamide] | < 5 µM | < 5 µM |  | < 5 µM
O=C(N[C@@H](Cc1cc(F)cc(F)c1)C(=O)N1CC[C@@H]2[C@H]1C(=O)CN2C(=O)c1csc2ccccc12)C(c1ccccc1)c1ccccc1 [Example 316, (3aR,6aS)-N-[(1S)-2-[4-(Benzo[b]thiophene-3-carbonyl)-6-oxo-hexahydro-pyrrolo[3,2-b]pyrrole-1-yl]-1-(3,5-difluoro-benzyl)-2-oxo-ethyl]-2,2-diphenyl-acetamide] | < 5 µM | < 5 µM | < 5 µM | < 5 µM
O=C(N[C@@H](Cc1ccc(O)cc1)C(=O)N1CC[C@@H]2[C@H]1C(=O)CN2C(=O)c1csc2ccccc12)C(c1ccccc1)c1ccccc1 [Example 329, (3aR,6aS)-N-[(1S)-2-[4-(Benzo[b]thiophene-3-carbonyl)-6-oxo-hexahydro-pyrrolo[3,2-b]pyrrole-1-yl]-1-(4-hydroxy-benzyl)-2-oxo-ethyl]-2,2-diphenyl-acetamide] | < 5 µM | < 5 µM | < 5 µM | < 5 µM
O=C(N[C@@H](Cc1ccc(O)cc1)C(=O)N1CC[C@@H]2[C@H]1C(=O)CN2C(=O)c1csc2ccccc12)c1cccc(Br)c1 [Example 323, (3aR,6aS)-N-[(1S)-2-[4-(Benzo[b]thiophene-3-carbonyl)-6-oxo-hexahydro-pyrrolo[3,2-b]pyrrole-1-yl]-1-(4-hydroxy-benzyl)-2-oxo-ethyl]-3-bromo-benzamide] | < 5 µM | < 5 µM |  | < 5 µM

— patent US20060100431A1, “Biologically active compounds” (Amura Therapeutics Limited, priority 2002, published 2006)
